Common to all, as to settings: 10 ug/ml AMT, 200 mW/cm2 UV-A
One test deals with YF (FMD 1240). The format is cell-based, Yellow Fever (YF).
Test [1] deals with WNV (CDC) M29539 (NY99-35262-11). Description: AMT photo-inactivation of arbovirus: West Nile Virus. The format is cell-based, West Nile Virus (WNV).
For the next test, the system named is SLE TBH-28 CDC M29777. In words: AMT photo-inactivation of arbovirus: Saint Louis Encephalitis. The format is cell-based, Saint Louis Encephalitis (SLE).
A further test relates to VEE TC 83 TVB 5215. The format is cell-based, Venezuelan Equine Encephalitis (VEE).

Like-named read-outs stand apart in the source and are kept apart here.

With `Cc1oc2c(C)c3oc(=O)cc(C)c3cc2c1CN.Cl` [AMT, 4′-Aminomethyltrioxsalen hydrochloride], the “YF (FMD 1240) titer after AMT and UV-A” value with YF (FMD 1240) (0 minutes) was determined as 1.47E+05 PFU/ml; with YF (FMD 1240) (1 minute), 3.68E+04 PFU/ml; in the test with YF (FMD 1240) (5 minutes) it was 9.00E+01 PFU/ml; in the test on YF (FMD 1240) (10 minutes) it was 0 PFU/ml; in the test with YF (FMD 1240) (20 minutes), 0 PFU/ml. Further, the “WNV (CDC) M29539 (NY99-35262-11) titer after AMT and UV-A” value in test [1] (0 minutes) came out at 8.00E+04 PFU/ml; in test [1] (1 minute), 1.68E+04 PFU/ml; in test [1] (5 minutes) it was 5.00E+01 PFU/ml; in test [1] (10 minutes) it was 0 PFU/ml; in test [1] (20 minutes) it was 0 PFU/ml. Besides, the “SLE TBH-28 CDC M29777 titer after AMT and UV-A” value in the test with SLE TBH-28 CDC M29777 (0 minutes) is 3.20E+03 PFU/ml; with SLE TBH-28 CDC M29777 (1 minute), 8.00E+01 PFU/ml; in the test on SLE TBH-28 CDC M29777 (5 minutes), 0 PFU/ml; in the test on SLE TBH-28 CDC M29777 (10 minutes), 0 PFU/ml; in the test with SLE TBH-28 CDC M29777 (20 minutes) it was 0 PFU/ml. The “VEE TC 83 TVB 5215 titer after AMT and UV-A” value in the test on VEE TC 83 TVB 5215 (0 minutes) was found to be 1.72E+09 PFU/ml; with VEE TC 83 TVB 5215 (1 minute), 1.60E+08 PFU/ml; in the test on VEE TC 83 TVB 5215 (5 minutes), 4.80E+04 PFU/ml; in the test with VEE TC 83 TVB 5215 (10 minutes), 1.50E+02 PFU/ml; in the test on VEE TC 83 TVB 5215 (20 minutes) it was 0 PFU/ml.

The record behind these values is patent US9005633B2 (priority 2009, dated 2015).
